Values of other authors, collected in patent US11771641B2, “Method for dyeing keratinous material by means of a premix of aminosilicone and a chromophoric compound” (Henkel AG & Co. KGaA, priority 2019, dated 2023).

Settings: 25° C.

Row | solubility in water | solubility in water (in words) | Compound
1 | more than 20 % by weight |  | CCN(Cc1cccc(S(=O)(=O)O)c1)c1ccc(C(=C2C=CC(=[N+](CC)Cc3cccc(S(=O)(=O)O)c3)C=C2)c2ccccc2S(=O)(=O)[O-])cc1 [Acid Blue 9]
2 | above 40 g/L |  | O=[N+]([O-])c1cc([N+](=O)[O-])c2ccc(S(=O)(=O)O)cc2c1O [Acid Yellow 9, 8-hydroxy-5,7-dinitro-2-naphthalenesulfonic acid]
3 |  | highly soluble | O=C(O)C1=NN(c2ccc(S(=O)(=O)O)cc2)C(=O)C1N=Nc1ccc(S(=O)(=O)O)cc1 (stereo not shown) [Acid Yellow 23, 4,5-dihydro-5-oxo-1-(4-sulfophenyl)-4-((4-sulfophenyl)azo)-1H-pyrazole-3-carboxylic acid]

Row | Compound | solubility in water | solubility in water (in words)
4 | O=S(=O)(O)c1ccc(N=Nc2c(O)ccc3ccccc23)cc1 [Acid Orange 7, 4-[(2-hydroxy-1-naphthyl)azo]benzene sulphonate] | more than 7 g/L | 
